Tests used:
FLK-1 receptor = target: T1, FLK-1 receptor (Mus musculus, UniProt P35918); assay: FLK-1 ELISA (kinase activity of the FLK-1 receptor in FLK-1/NIH3T3 cells, VEGF stimulated); assay type: cell-based; design: concentration or dose not given beside the values
T1 construct: expressed in transfected cells; host or cells: NIH3T3 C7#3
Method in brief: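 An ELISA using affinity-purified rabbit anti-FLK-1 antiserum on anti-rabbit IgG-coated plates measured VEGF-stimulated FLK-1 kinase activity. NIH3T3 C7#3 cells carrying FLK-1 were serum-starved (0.1% FBS) overnight, then exposed to compound (final 1:200 dilution, 0.5% DMSO) for two hours at 37 °C.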

MET = MET biochemical kinase assay; design: species or system human; concentration or dose not given beside the values
Method in brief: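 Plates coated with anti-rabbit Fc bind a rabbit anti-MET antibody that captures receptor from cell lysates; unbound protein is washed off before compound and ATP-containing kinase buffer go in.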

T1 sequence (P35918 20-1345): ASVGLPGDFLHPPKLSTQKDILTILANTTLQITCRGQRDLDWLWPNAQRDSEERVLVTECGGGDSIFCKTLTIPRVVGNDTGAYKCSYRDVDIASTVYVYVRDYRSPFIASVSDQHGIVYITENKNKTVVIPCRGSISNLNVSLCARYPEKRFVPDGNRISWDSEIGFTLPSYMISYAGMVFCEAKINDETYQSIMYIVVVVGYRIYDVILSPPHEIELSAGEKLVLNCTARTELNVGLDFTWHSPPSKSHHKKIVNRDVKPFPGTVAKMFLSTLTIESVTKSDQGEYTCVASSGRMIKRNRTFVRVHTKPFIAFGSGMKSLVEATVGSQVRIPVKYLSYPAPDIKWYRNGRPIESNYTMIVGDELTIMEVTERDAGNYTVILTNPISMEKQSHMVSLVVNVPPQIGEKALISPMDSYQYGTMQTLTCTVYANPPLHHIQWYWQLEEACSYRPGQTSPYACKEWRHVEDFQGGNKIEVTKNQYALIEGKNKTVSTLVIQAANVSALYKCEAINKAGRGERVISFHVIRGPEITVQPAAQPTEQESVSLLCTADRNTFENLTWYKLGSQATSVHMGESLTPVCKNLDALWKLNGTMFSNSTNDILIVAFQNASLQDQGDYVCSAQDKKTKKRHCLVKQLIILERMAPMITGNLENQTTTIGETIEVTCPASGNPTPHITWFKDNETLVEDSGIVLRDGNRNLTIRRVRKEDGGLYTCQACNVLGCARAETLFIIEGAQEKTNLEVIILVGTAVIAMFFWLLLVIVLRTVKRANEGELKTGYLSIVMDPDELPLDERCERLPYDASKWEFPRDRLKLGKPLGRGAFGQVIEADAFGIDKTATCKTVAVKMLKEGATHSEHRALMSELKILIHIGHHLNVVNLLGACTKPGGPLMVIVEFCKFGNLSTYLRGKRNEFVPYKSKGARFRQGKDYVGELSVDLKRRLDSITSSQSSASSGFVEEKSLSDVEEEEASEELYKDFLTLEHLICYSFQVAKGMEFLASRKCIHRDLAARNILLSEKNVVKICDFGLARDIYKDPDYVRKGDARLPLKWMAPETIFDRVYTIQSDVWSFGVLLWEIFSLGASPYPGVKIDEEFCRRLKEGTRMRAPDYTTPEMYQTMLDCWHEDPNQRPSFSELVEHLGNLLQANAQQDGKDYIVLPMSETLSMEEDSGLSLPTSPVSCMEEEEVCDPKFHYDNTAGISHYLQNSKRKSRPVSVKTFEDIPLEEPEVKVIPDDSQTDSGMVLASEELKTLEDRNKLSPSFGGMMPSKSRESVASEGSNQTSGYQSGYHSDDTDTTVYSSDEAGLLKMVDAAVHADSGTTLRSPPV

Row | Structure (SMILES) | Fik Kinase %Inhibition (FLK-1 receptor) [%] | Met Kinase % Inhibition (MET) [%]
1 | COc1ccc2[nH]cc(C=C3C(=O)Nc4ccc(Br)c(C)c43)c2c1 [10731/C09] | 15.1 | 22.7
2 | COc1cc(C=C2C(=O)Nc3ccc(CCCl)cc32)cc(OC)c1OC [10730/G04] | 7.4 | 47.7
3 | Cc1ccc2occ(C=C3C(=O)Nc4c(Br)cc(Br)cc43)c(=O)c2c1 [10731/A06] | -5.5 | 53.0
4 | Cc1cc2occ(C=C3C(=O)Nc4ccc(Br)c(C)c43)c(=O)c2cc1C [10731/C03] | 4.5 | 38.7
5 | Cc1ccc2occ(C=C3C(=O)Nc4ccc(I)cc43)c(=O)c2c1 [10731/B06] | 6.2 | 56.2
6 | C=C(C)C1CC=C(C=C2C(=O)Nc3ccc(I)cc32)CC1 (centres unmarked) [10731/B04] | 12.0 | 71.0
7 | CCn1c2ccccc2c2cc(C=C3C(=O)Nc4ccc(Br)c(C)c43)ccc21 [10731/C02] | 3.1 | 11.1
8 | Cc1c(Br)ccc2c1C(=C1C(=O)N(C)c3ccccc31)C(=O)N2 [10731/C10] | 19.7 | 23.3
9 | Cc1c(O)ccc(C=C2C(=O)Nc3ccc(Br)c(C)c32)c1O [10718/C09] | 5.3 | 38.2
10 | C=C(C)C1CC=C(C=C2C(=O)Nc3c(Br)cc(Br)cc32)CC1 (centres unmarked) [10731/A04] | 5.0 | 43.6
11 | CN1C(=O)C(=C2C(=O)Nc3c(Br)cc(Br)cc32)c2ccccc21 [10731/A10] | -5.3 | 41.2
12 | COC(=O)c1[nH]c(C)c(C=C2C(=O)Nc3ccc(Br)c(C)c32)c1C(=O)OC [10718/C07] | 6.3 | 29.6
13 | Cc1cc2occ(C=C3C(=O)Nc4c(Br)cc(Br)cc43)c(=O)c2cc1C [10731/A03] | 2.5 | 54.8
14 | Cc1ccc2occ(C=C3C(=O)Nc4ccc(Br)c(C)c43)c(=O)c2c1 [10731/C06] | 13.8 | 18.2
15 | COc1cc(OC)c(OC)cc1C=C1C(=O)Nc2ccc(CCCl)cc21 [10730/G03] | 15.2 | 43.2
16 | O=C1Nc2c(Br)cc(Br)cc2C1=Cc1coc2ccc([N+](=O)[O-])cc2c1=O [10731/A07] | -4.3 | 49.5
17 | CCOC(=O)c1cc(C=C2C(=O)Nc3ccc(Br)c(C)c32)oc1C [10718/C06] | 16.8 | 3.9
18 | O=C1Nc2ccc(CCCl)cc2C1=Cc1cc2ccccc2nc1Cl [10730/G08] | 23.3 | 16.6
19 | CC(C)c1ccc2occ(C=C3C(=O)Nc4ccc(I)cc43)c(=O)c2c1 [10731/B05] | 3.8 | 86.0
20 | Cc1c(Br)ccc2c1C(=Cc1coc3ccc([N+](=O)[O-])cc3c1=O)C(=O)N2 [10731/C07] | 70.4 | -11.6
21 | O=C1Nc2c(Br)cc(Br)cc2C1=Cc1ccc[nH]1 [10717/A09] | -3.9 | 9.4
22 | COc1ccc2[nH]cc(C=C3C(=O)Nc4c(Br)cc(Br)cc43)c2c1 [10731/A09] | -2.7 | 46.7
23 | CN1C(=O)C(=C2C(=O)Nc3ccc(I)cc32)c2ccccc21 [10731/B10] | 1.3 | 72.9

Row | Structure (SMILES) | Fik Kinase %Inhibition (FLK-1 receptor) [%] | Met Kinase % Inhibition (MET) [%]
24 | O=C1Nc2c(Br)cc(Br)cc2C1=Cc1c[nH]c(=O)[nH]c1=O [10731/A08] | -13.8 | 59.9
25 | Cc1c(Br)ccc2c1C(=Cc1ccc(Cl)c([N+](=O)[O-])c1)C(=O)N2 [10718/C08] | 19.6 | 22.7
26 | CCn1c2ccccc2c2cc(C=C3C(=O)Nc4ccc(S(=O)(=O)NC)cc43)ccc21 [10731/D02] | -8.4 | 8.7
27 | COc1ccc(C=C2C(=O)Nc3ccc(CCCl)cc32)c(OC)c1OC [10730/G02] | 23.3 | 41.1
28 | Cc1cc2occ(C=C3C(=O)Nc4ccc(I)cc43)c(=O)c2cc1C [10731/B03] | 1.9 | 60.9
29 | C=C(C)C1CC=C(C=C2C(=O)Nc3ccc(Br)c(C)c32)CC1 (centres unmarked) [10731/C04] | 10.5 | 32.5
30 | O=C1Nc2ccc(CCCl)cc2C1=Cc1ccc(-c2ccccc2Cl)o1 [10730/G07] | 8.3 | 26.2
31 | Cc1c(Br)ccc2c1C(=Cc1coc3ccc(C(C)C)cc3c1=O)C(=O)N2 [10731/C05] | 14.9 | 78.3
32 | Cc1c(Br)ccc2c1C(=Cc1c[nH]c(=O)[nH]c1=O)C(=O)N2 [10731/C08] | 10.2 | 25.8
33 | COC1CC(C=C2C(=O)Nc3ccc(S(=O)(=O)N4CCOCC4)cc32)C(OC)O1 (centres unmarked) [10730/F10] | 13.4 | 42.1
34 | CCOC(=O)CCc1c(C(=O)OCC)[nH]c(C=C2C(=O)Nc3ccc(Br)c(C)c32)c1CC(=O)OCC [10718/C05] | 20.5 | 8.7
35 | COC1CC(C=C2C(=O)Nc3ccc(CCCl)cc32)C(OC)O1 (centres unmarked) [10730/G10] | 11.3 | 42.1
36 | CCn1c2ccccc2c2cc(C=C3C(=O)Nc4c(Br)cc(Br)cc43)ccc21 [10731/A02] | 2.7 | 23.9
37 | CC(C)c1ccc2occ(C=C3C(=O)Nc4c(Br)cc(Br)cc43)c(=O)c2c1 [10731/A05] | -6.5 | 85.8
38 | CCn1c2ccccc2c2cc(C=C3C(=O)Nc4ccc(I)cc43)ccc21 [10731/B02] | 6.5 | 71.6
39 | O=C1Nc2ccc(I)cc2C1=Cc1coc2ccc([N+](=O)[O-])cc2c1=O [10731/B07] | 11.7 | 41.6
40 | CC(=O)n1cc(C=C2C(=O)Nc3ccc(CCCl)cc32)c2ccccc21 [10730/G05] | 22.3 | 35.8
41 | O=C1Nc2ccc(I)cc2C1=Cc1c[nH]c(=O)[nH]c1=O [10731/B08] | 6.2 | 57.4
42 | Cc1cc(C=C2C(=O)Nc3ccc(S(=O)(=O)N4CCOCC4)cc32)oc1C [10730/F11] | -1.3 | 53.6
43 | O=C1Nc2ccc(S(=O)(=O)N3CCOCC3)cc2C1=Cc1coc2c(Br)cc(Br)cc2c1=O [10730/F09] | 14.4 | 71.1
44 | CNS(=O)(=O)c1ccc2c(c1)C(=Cc1coc3cc(C)c(C)cc3c1=O)C(=O)N2 [10731/D03] | 17.3 | 40.2
45 | Cc1cc(C=C2C(=O)Nc3ccc(CCCl)cc32)oc1C [10730/G11] | -1.4 | 46.1
46 | COc1ccc2[nH]cc(C=C3C(=O)Nc4ccc(I)cc43)c2c1 [10731/B09] | -0.5 | 29.6
